The supplement of paper PMC10883282

How the values were obtained:
Test in all cases: standardised AUC of viability dose-response curve (72 h) (fraction (0-1)); higher = less growth inhibition (more resistant)
[1] = tested on: MES-SA
Method in brief: (§1)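 Sarcoma cell lines in 384-well plates were treated in triplicate for 72 h with 2.5 µl of a compound dilution series, made in 1:3 steps from 10 mM to 0.0002 mM on the compound plate. ATPLite viability was scaled from 1 (full) to 0 (none) and fitted per drug and cell line with a four-parameter log-logistic model. The values are standardised areas under the dose-response curve in log-dose space, from a modified drexplorer computeAUC. On that scale, 1 means no response and 0 means full response.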

[2] = tested on: KHOS-NP
Method in brief: as §1

[3] = tested on: SYO-1
Method in brief: as §1

[4] = tested on: A204
Method in brief: as §1

[5] = tested on: SW684
Method in brief: as §1

[6] = tested on: SW982
Method in brief: as §1

[7] = tested on: SK-ES-1
Method in brief: as §1

[8] = tested on: SW872
Method in brief: as §1

[9] = tested on: KHOS-240S
Method in brief: as §1

[10] = tested on: SW1353
Method in brief: as §1

[11] = tested on: SK-LMS-1
Method in brief: as §1

[12] = tested on: G401
Method in brief: as §1

[13] = tested on: VA-ES-BJ
Method in brief: as §1

[14] = tested on: HT1080
Method in brief: as §1

[15] = tested on: RD
Method in brief: as §1

[16] = tested on: HS729
Method in brief: as §1

[17] = tested on: RD-ES
Method in brief: as §1

Compound: O=S(=O)(c1cccc2c(O)nccc12)N1CCCNCC1 [HYDROXYFASUDIL]
- standardised AUC [1]: 0.967
- standardised AUC [2]: 0.981
- standardised AUC [3]: 0.958
- standardised AUC [4]: 0.98
- standardised AUC [5]: 0.95
- standardised AUC [6]: 0.992
- standardised AUC [7]: 0.976
- standardised AUC [8]: 0.961
- standardised AUC [9]: 0.975
- standardised AUC [10]: 0.965
- standardised AUC [11]: 0.979
- standardised AUC [12]: 0.99
- standardised AUC [13]: 0.968
- standardised AUC [14]: 0.999
- standardised AUC [15]: 1
- standardised AUC [16]: 0.917
- standardised AUC [17]: 1

Compound: C#Cc1cccc(Nc2ncnc3cc4c(cc23)OCCOCCOCCO4)c1 [ICOTINIB]
- standardised AUC [1]: 0.976
- standardised AUC [2]: 0.996
- standardised AUC [3]: 0.966
- standardised AUC [4]: 0.958
- standardised AUC [5]: 0.986
- standardised AUC [6]: 0.989
- standardised AUC [7]: 0.986
- standardised AUC [8]: 0.958
- standardised AUC [9]: 0.99
- standardised AUC [10]: 0.947
- standardised AUC [11]: 0.982
- standardised AUC [12]: 0.995
- standardised AUC [13]: 0.975
- standardised AUC [14]: 0.988
- standardised AUC [15]: 1
- standardised AUC [16]: 0.918
- standardised AUC [17]: 0.985

Compound: CCN1CCN(c2ccc(Nc3cc(N(C)C(=O)Nc4c(Cl)c(OC)cc(OC)c4Cl)ncn3)cc2)CC1 [INFIGRATINIB]
- standardised AUC [1]: 0.774
- standardised AUC [2]: 0.983
- standardised AUC [3]: 0.736
- standardised AUC [4]: 0.701
- standardised AUC [5]: 0.996
- standardised AUC [6]: 0.933
- standardised AUC [7]: 0.838
- standardised AUC [8]: 0.95
- standardised AUC [9]: 0.896
- standardised AUC [10]: 0.855
- standardised AUC [11]: 0.965
- standardised AUC [12]: 0.719
- standardised AUC [13]: 0.943
- standardised AUC [14]: 0.995
- standardised AUC [15]: 0.986
- standardised AUC [16]: 0.737
- standardised AUC [17]: 0.926

Compound: CS(=O)(=O)CCNCc1ccc(-c2ccc3ncnc(Nc4ccc(OCc5cccc(F)c5)c(Cl)c4)c3c2)o1 [LAPATINIB]
- standardised AUC [1]: 0.924
- standardised AUC [2]: 0.99
- standardised AUC [3]: 0.924
- standardised AUC [4]: 0.915
- standardised AUC [5]: 0.989
- standardised AUC [6]: 0.94
- standardised AUC [7]: 0.928
- standardised AUC [8]: 0.936
- standardised AUC [9]: 0.927
- standardised AUC [10]: 0.941
- standardised AUC [11]: 0.938
- standardised AUC [12]: 0.991
- standardised AUC [13]: 0.966
- standardised AUC [14]: 0.99
- standardised AUC [15]: 0.938
- standardised AUC [16]: 0.952
- standardised AUC [17]: 0.995

Compound: O=C1CCc2c(Oc3ccc4c(c3)[C@@H]3[C@H](O4)[C@H]3c3nc4cc(C(F)(F)F)ccc4[nH]3)ccnc2N1 [LIFIRAFENIB]
- standardised AUC [1]: 0.956
- standardised AUC [2]: 0.882
- standardised AUC [3]: 0.88
- standardised AUC [4]: 0.805
- standardised AUC [5]: 0.999
- standardised AUC [6]: 0.931
- standardised AUC [7]: 0.955
- standardised AUC [8]: 0.87
- standardised AUC [9]: 0.938
- standardised AUC [10]: 0.96
- standardised AUC [11]: 0.904
- standardised AUC [12]: 0.946
- standardised AUC [13]: 0.987
- standardised AUC [14]: 0.963
- standardised AUC [15]: 0.924
- standardised AUC [16]: 0.95
- standardised AUC [17]: 0.988

Compound: CNC(=O)c1cccc2cc(Oc3ccnc4cc(OCC5(N)CC5)c(OC)cc34)ccc12 [LUCITANIB]
- standardised AUC [1]: 0.908
- standardised AUC [2]: 0.994
- standardised AUC [3]: 0.74
- standardised AUC [4]: 0.585
- standardised AUC [5]: 0.973
- standardised AUC [6]: 0.975
- standardised AUC [7]: 0.95
- standardised AUC [8]: 0.985
- standardised AUC [9]: 0.901
- standardised AUC [10]: 0.893
- standardised AUC [11]: 0.94
- standardised AUC [12]: 0.853
- standardised AUC [13]: 0.994
- standardised AUC [14]: 1
- standardised AUC [15]: 0.985
- standardised AUC [16]: 0.85
- standardised AUC [17]: 0.964

Compound: CCOc1cc2ncc(C#N)c(Nc3ccc(OCc4ccccn4)c(Cl)c3)c2cc1NC(=O)/C=C/CN(C)C [NERATINIB]
- standardised AUC [1]: 0.745
- standardised AUC [2]: 0.889
- standardised AUC [3]: 0.818
- standardised AUC [4]: 0.755
- standardised AUC [5]: 0.901
- standardised AUC [6]: 0.717
- standardised AUC [7]: 0.693
- standardised AUC [8]: 0.817
- standardised AUC [9]: 0.873
- standardised AUC [10]: 0.753
- standardised AUC [11]: 0.847
- standardised AUC [12]: 0.851
- standardised AUC [13]: 0.83
- standardised AUC [14]: 0.877
- standardised AUC [15]: 0.775
- standardised AUC [16]: 0.872
- standardised AUC [17]: 0.822

Compound: COC(=O)c1ccc2c(c1)NC(=O)/C2=C(\Nc1ccc(N(C)C(=O)CN2CCN(C)CC2)cc1)c1ccccc1 [NINTEDANIB]
- standardised AUC [1]: 0.967
- standardised AUC [2]: 0.961
- standardised AUC [3]: 0.672
- standardised AUC [4]: 0.624
- standardised AUC [5]: 0.953
- standardised AUC [6]: 0.941
- standardised AUC [7]: 0.832
- standardised AUC [8]: 0.978
- standardised AUC [9]: 0.858
- standardised AUC [10]: 0.966
- standardised AUC [11]: 0.943
- standardised AUC [12]: 0.859
- standardised AUC [13]: 0.982
- standardised AUC [14]: 0.96
- standardised AUC [15]: 0.93
- standardised AUC [16]: 0.88
- standardised AUC [17]: 0.896

Compound: Cc1[nH]c(/C=C2\C(=O)Nc3ccccc32)c(C)c1CCC(=O)O [ORANTINIB]
- standardised AUC [1]: 0.958
- standardised AUC [2]: 0.99
- standardised AUC [3]: 0.976
- standardised AUC [4]: 0.963
- standardised AUC [5]: 0.966
- standardised AUC [6]: 0.966
- standardised AUC [7]: 0.977
- standardised AUC [8]: 0.975
- standardised AUC [9]: 0.993
- standardised AUC [10]: 0.964
- standardised AUC [11]: 0.976
- standardised AUC [12]: 0.977
- standardised AUC [13]: 0.967
- standardised AUC [14]: 0.971
- standardised AUC [15]: 0.994
- standardised AUC [16]: 0.934
- standardised AUC [17]: 0.985

Compound: CC(=O)c1c(C)c2cnc(Nc3ccc(N4CCNCC4)cn3)nc2n(C2CCCC2)c1=O [PALBOCICLIB]
- standardised AUC [1]: 0.808
- standardised AUC [2]: 0.96
- standardised AUC [3]: 0.772
- standardised AUC [4]: 0.806
- standardised AUC [5]: 0.928
- standardised AUC [6]: 0.789
- standardised AUC [7]: 0.721
- standardised AUC [8]: 0.887
- standardised AUC [9]: 0.863
- standardised AUC [10]: 0.922
- standardised AUC [11]: 0.967
- standardised AUC [12]: 0.903
- standardised AUC [13]: 0.78
- standardised AUC [14]: 0.96
- standardised AUC [15]: 0.946
- standardised AUC [16]: 0.949
- standardised AUC [17]: 0.792

Compound: CN(C)C(=O)c1cc2cnc(Nc3ccc(N4CCNCC4)cn3)nc2n1C1CCCC1 [RIBOCICLIB]
- standardised AUC [1]: 0.94
- standardised AUC [2]: 0.997
- standardised AUC [3]: 0.86
- standardised AUC [4]: 0.909
- standardised AUC [5]: 0.984
- standardised AUC [6]: 0.952
- standardised AUC [7]: 0.816
- standardised AUC [8]: 0.95
- standardised AUC [9]: 0.961
- standardised AUC [10]: 0.939
- standardised AUC [11]: 0.963
- standardised AUC [12]: 0.917
- standardised AUC [13]: 0.903
- standardised AUC [14]: 0.993
- standardised AUC [15]: 0.946
- standardised AUC [16]: 0.987
- standardised AUC [17]: 0.865

Compound: O=C(/C=C\n1cnc(-c2cc(C(F)(F)F)cc(C(F)(F)F)c2)n1)NNc1cnccn1 [SELINEXOR]
- standardised AUC [1]: 0.652
- standardised AUC [2]: 0.655
- standardised AUC [3]: 0.596
- standardised AUC [4]: 0.672
- standardised AUC [5]: 0.847
- standardised AUC [6]: 0.649
- standardised AUC [7]: 0.5
- standardised AUC [8]: 0.781
- standardised AUC [9]: 0.612
- standardised AUC [10]: 0.822
- standardised AUC [11]: 0.642
- standardised AUC [12]: 0.706
- standardised AUC [13]: 0.625
- standardised AUC [14]: 0.714
- standardised AUC [15]: 0.721
- standardised AUC [16]: 0.773
- standardised AUC [17]: 0.751
